Structures are written as SMILES. Converted amounts (≈) assume the structure as drawn.

What all share (experiment): ≥ marks a high value that may be exact or a test limit, other limits are often not marked, values filed in µg/mL are converted to µM
One assay concerns Acinetobacter baumannii.
In assay [1] the test system is Escherichia coli ATCC 25922.
The subject of assay [2] is Klebsiella pneumoniae ATCC 700603.
The subject of assay [3] is Pseudomonas aeruginosa ATCC 9027.
Assay [4] concerns Staphylococcus aureus ATCC 25923.
In assay [5] the test system is Candida albicans ATCC 2002.
Assay [6] relates to Pseudomonas aeruginosa CMCCB 10104.
Assay [7] relates to Klebsiella pneumoniae ATCC 13883.
For assay [8], the system named is Pseudomonas aeruginosa PAO1.
The subject of assay [9] is Staphylococcus aureus USA 300.

Take `CC[C@H](C)[C@H](N)C(=O)N1CCC[C@H]1C(=O)N[C@@H](CC(C)C)C(=O)N[C@@H](CC(C)C)C(=O)N[C@@H](CCCN=C(N)N)C(=O)N[C@@H](CCCCN)C(=O)NCC(=O)N[C@@H](CCCCN)C(=O)N[C@@H](CCCCN)C(=O)N[C@H](C(=O)N[C@H](C(=O)N[C@@H](Cc1c[nH]c2ccccc12)C(=O)N[C@@H](Cc1c[nH]c2ccccc12)C(=O)O)[C@@H](C)CC)[C@@H](C)CC` [IPLLRKGKKIIWW]: the MIC (usually the lowest concentration that inhibits growth of the organism) is at least 64 µM in the assay on Acinetobacter baumannii; over 64 µM in assay [1]; over 64 µM in assay [2]; 64 µM (≈ 106 µg/mL) in [3]; over 64 µM in assay [4].

For `CC[C@H](C)[C@H](N)C(=O)N[C@@H](CC(=O)O)C(=O)N1CCC[C@H]1C(=O)N[C@@H](Cc1ccccc1)C(=O)N[C@H](C(=O)N[C@@H](C)C(=O)NCC(=O)N[C@H](C(=O)N[C@@H](C)C(=O)N[C@@H](C)C(=O)N[C@@H](CCC(=O)O)C(=O)N[C@@H](CCSC)C(=O)N[C@@H](CCSC)C(=O)N[C@@H](CCC(N)=O)C(=O)N[C@@H](Cc1cnc[nH]1)C(=O)N[C@H](C(=O)N[C@@H](Cc1ccc(O)cc1)C(=O)N[C@H]1CSSC[C@@H](C(=O)O)NC(=O)[C@H](CCCCN)NC(=O)[C@H](CCCCN)NC(=O)[C@H](CO)NC(=O)[C@H](C)NC(=O)[C@H](C)NC1=O)C(C)C)C(C)C)C(C)C` [IDPFVAGVAAEMMQHVYCAASKKC], the MIC was 7.08 µM (≈ 18.2 µg/mL) in assay [5], 3.54 µM (≈ 9.09 µg/mL) in assay [1], 7.08 µM (≈ 18.2 µg/mL) in assay [6] and 7.08 µM (≈ 18.2 µg/mL) in [4].

Regarding `CC[C@H](C)[C@H](NC(=O)[C@H](CCCCN)NC(=O)[C@H](CCC(N)=O)NC(=O)[C@@H](NC(=O)[C@@H](NC(=O)[C@H](CCCCN)NC(=O)[C@H](CCCN=C(N)N)NC(=O)[C@H](Cc1ccccc1)NC(=O)CN)[C@@H](C)CC)C(C)C)C(=O)N[C@@H](CCCN=C(N)N)C(=O)N[C@@H](CC(=O)O)C(=O)N[C@@H](Cc1ccccc1)C(=O)N[C@@H](CC(C)C)C(=O)N[C@@H](CCCN=C(N)N)C(=O)N[C@@H](CC(N)=O)C(=O)N[C@@H](CC(C)C)C(=O)N[C@H](C(N)=O)C(C)C` [GFRKIVQKIRDFLRNLV], the MIC in assay [1] was 4.4 µM (≈ 9.25 µg/mL); in [7] it was 3.1 µM (≈ 6.51 µg/mL); in assay [8], over 50 µM; in assay [9], 3.1 µM (≈ 6.51 µg/mL).

In the case of `CC(C)C[C@H](NC(=O)[C@H](CC(C)C)NC(=O)[C@H](CCCCN)NC(=O)[C@H](CC(C)C)NC(=O)CNC(=O)[C@H](CC(C)C)NC(=O)[C@H](CO)NC(=O)[C@H](CC(C)C)NC(=O)[C@H](CC(C)C)NC(=O)[C@H](CC(C)C)NC(=O)[C@H](CO)NC(=O)[C@H](CC(C)C)NC(=O)[C@@H](N)CCCCN)C(N)=O` [KLSLLLSLGLKLL], the MIC in assay [1] was over 25 µM; in assay [7], 25 µM (≈ 35.2 µg/mL); in assay [8] it was over 25 µM; in assay [9], 1.6 µM (≈ 2.26 µg/mL).

Take `CC(C)C[C@@H]1NC(=O)[C@H](CCCCN)NC(=O)[C@H](CC(=O)O)NC(=O)[C@H](CC(N)=O)NC(=O)[C@H](Cc2ccc(O)cc2)NC(=O)[C@@H](NC(=O)[C@H](CCCCN)NC(=O)[C@@H]2CCCN2C(=O)[C@H](C)NC(=O)[C@H](CCCCN)NC(=O)[C@H](CS)NC(=O)[C@H](CCCCN)NC(=O)[C@H](CC(C)C)NC(=O)[C@H](CCCCN)NC(=O)[C@H](CC(C)C)NC(=O)[C@H](CCCCN)NC(=O)[C@H](CCC(=O)O)NC(=O)[C@@H](N)CCCCN)CSSC[C@@H](C(=O)N[C@H](C(=O)O)[C@@H](C)O)NC(=O)[C@H](C)NC1=O` [KEKLKLKCKAPKCYNDKLACT]: the MIC in assay [5] was at least 82.4 µM; in [1] it was over 82.4 µM; in [6], at least 82.4 µM; in [4], over 82.4 µM.

Turning to `CC[C@H](C)[C@H](NC(=O)CN)C(=O)N[C@@H](CC(C)C)C(=O)N[C@@H](CC(=O)O)C(=O)N[C@H](C(=O)N[C@@H](Cc1ccccc1)C(=O)N[C@@H](CCCCN)C(=O)N[C@@H](CC(N)=O)C(=O)N[C@@H](CCSC)C(=O)N[C@@H](C)C(=O)N[C@@H](CC(C)C)C(=O)N[C@@H](CC(N)=O)C(=O)N[C@@H](C)C(=O)N[C@@H](C)C(=O)N[C@@H](CCCCN)C(=O)N[C@@H](CO)C(=O)N[C@@H](C)C(=O)NCC(=O)N[C@H](C(=O)N[C@@H](CO)C(=O)N[C@H](C(=O)N[C@@H](CC(C)C)C(=O)N[C@@H](CC(N)=O)C(=O)N[C@@H](C)C(=O)N[C@@H](CC(C)C)C(=O)N[C@@H](CO)C(=O)N[C@H]1CSSC[C@@H](C(=O)O)NC(=O)[C@H]([C@@H](C)O)NC(=O)[C@H](CCCCN)NC(=O)[C@H](CO)NC(=O)[C@H](CC(C)C)NC(=O)[C@H](CCCCN)NC1=O)C(C)C)C(C)C)[C@@H](C)O` [GILDTFKNMALNAAKSAGVSVLNALSCKLSKTC], the MIC in assay [5] worked out at 1.78 µM (≈ 6 µg/mL); in assay [1] it was 3.59 µM (≈ 12.1 µg/mL); in assay [6], 3.59 µM (≈ 12.1 µg/mL); in assay [4] it was 3.59 µM (≈ 12.1 µg/mL).

Consider `CC[C@H](C)[C@H](N)C(=O)N[C@@H](CC(C)C)C(=O)N1CCC[C@H]1C(=O)N[C@@H](Cc1ccccc1)C(=O)N[C@H](C(=O)N[C@@H](C)C(=O)NCC(=O)N[C@H](C(=O)N[C@@H](C)C(=O)N[C@@H](C)C(=O)N[C@@H](CCC(=O)O)C(=O)N[C@@H](CCSC)C(=O)N[C@@H](CCSC)C(=O)N[C@@H](CCCCN)C(=O)N[C@@H](Cc1cnc[nH]1)C(=O)N[C@H](C(=O)N[C@@H](Cc1ccc(O)cc1)C(=O)N[C@H]1CSSC[C@@H](C(=O)O)NC(=O)[C@H](CCCCN)NC(=O)[C@H](CCCCN)NC(=O)[C@H](CO)NC(=O)[C@H](C)NC(=O)[C@H](C)NC1=O)C(C)C)C(C)C)C(C)C` [ILPFVAGVAAEMMKHVYCAASKKC], for which the MIC was determined as 2.96 µM (≈ 7.59 µg/mL) in assay [5], 5.92 µM (≈ 15.2 µg/mL) in assay [1], 11.8 µM (≈ 30.4 µg/mL) in [6] and 5.92 µM (≈ 15.2 µg/mL) in assay [4].

As to `CC[C@H](C)[C@H](N)C(=O)N[C@H](C(=O)N1CCC[C@H]1C(=O)N[C@@H](Cc1ccccc1)C(=O)N[C@H](C(=O)N[C@@H](C)C(=O)NCC(=O)N[C@H](C(=O)N[C@@H](C)C(=O)N[C@@H](C)C(=O)N[C@@H](CCC(=O)O)C(=O)N[C@@H](CCSC)C(=O)N[C@@H](CCSC)C(=O)N[C@@H](CCC(=O)O)C(=O)N[C@@H](Cc1cnc[nH]1)C(=O)N[C@H](C(=O)N[C@@H](Cc1ccc(O)cc1)C(=O)N[C@H]1CSSC[C@@H](C(=O)O)NC(=O)[C@H](CCCCN)NC(=O)[C@H](CCCCN)NC(=O)[C@H](CO)NC(=O)[C@H](C)NC(=O)[C@H](C)NC1=O)C(C)C)C(C)C)C(C)C)[C@@H](C)CC` [IIPFVAGVAAEMMEHVYCAASKKC], the MIC came to 4.32 µM (≈ 11.1 µg/mL) in [5], 4.32 µM (≈ 11.1 µg/mL) in [1], 8.64 µM (≈ 22.2 µg/mL) in [6] and 8.64 µM (≈ 22.2 µg/mL) in assay [4].

For the compound `CC[C@H](C)[C@H](NC(=O)[C@@H](NC(=O)[C@H](CC(=O)O)NC(=O)[C@H](CC(C)C)NC(=O)[C@H](CC(C)C)NC(=O)CN)[C@@H](C)O)C(=O)N[C@@H](CCCCN)C(=O)N[C@@H](CC(N)=O)C(=O)N[C@@H](CCSC)C(=O)N[C@@H](C)C(=O)N[C@@H](CC(C)C)C(=O)N[C@@H](CC(N)=O)C(=O)N[C@@H](C)C(=O)N[C@@H](C)C(=O)N[C@@H](CCCCN)C(=O)N[C@@H](CO)C(=O)N[C@@H](C)C(=O)NCC(=O)N[C@H](C(=O)N[C@@H](CO)C(=O)N[C@H](C(=O)N[C@@H](CC(C)C)C(=O)N[C@@H](CC(N)=O)C(=O)N[C@@H](CO)C(=O)N[C@@H](CC(C)C)C(=O)N[C@@H](CO)C(=O)N[C@H]1CSSC[C@@H](C(=O)O)NC(=O)[C@H]([C@@H](C)O)NC(=O)[C@H](CCCCN)NC(=O)[C@H](CO)NC(=O)[C@H](CC(C)C)NC(=O)[C@H](CCCCN)NC1=O)C(C)C)C(C)C` [GLLDTIKNMALNAAKSAGVSVLNSLSCKLSKTC], the MIC in assay [5] stood at 3.61 µM (≈ 12.1 µg/mL); in assay [1] it was 3.61 µM (≈ 12.1 µg/mL); in [6] it was 1.79 µM (≈ 6 µg/mL); in [4], 3.61 µM (≈ 12.1 µg/mL).

Regarding `CC(C)[C@H](N)C(=O)N[C@H](C(=O)N[C@@H](CCCCN)C(=O)N[C@@H](Cc1ccccc1)C(=O)N[C@@H](CO)C(=O)N[C@@H](Cc1ccc(O)cc1)C(=O)N[C@@H](CCCN=C(N)N)C(=O)N[C@@H](CCCCN)C(=O)NCC(=O)N[C@@H](CO)C(=O)N1CCC[C@H]1C(=O)N[C@@H](C)C(=O)N1CCC[C@H]1C(=O)N[C@@H](CCC(N)=O)C(=O)N[C@@H](CCCCN)C(=O)N[C@@H](CC(N)=O)C(=O)O)C(C)C` [VVKFSYRKGSPAPQKN], the MIC in assay [5] was at least 111 µM; in assay [1] it was over 111 µM; in assay [6] it was at least 111 µM; in assay [4], over 111 µM.

As for `CC(C)C[C@H](NC(=O)[C@H](CC(C)C)NC(=O)[C@H](CCCCN)NC(=O)CNC(=O)[C@H](CC(C)C)NC(=O)[C@H](CC(C)C)NC(=O)[C@H](CO)NC(=O)[C@H](CC(C)C)NC(=O)[C@H](C)NC(=O)[C@H](CO)NC(=O)[C@H](CC(C)C)NC(=O)[C@H](CC(C)C)NC(=O)CN)C(N)=O` [GLLSALSLLGKLL], the MIC in assay [1] is 3.1 µM (≈ 4.02 µg/mL); in [7] it was 3.1 µM (≈ 4.02 µg/mL); in [8], over 25 µM; in assay [9] it was 0.78 µM (≈ 1.01 µg/mL).

As to `CC(C)C[C@H](NC(=O)[C@H](C)NC(=O)[C@H](CCCCN)NC(=O)CNC(=O)[C@H](CC(C)C)NC(=O)[C@H](CC(C)C)NC(=O)[C@H](CO)NC(=O)[C@H](CC(C)C)NC(=O)[C@H](CC(C)C)NC(=O)[C@H](CO)NC(=O)[C@H](CC(C)C)NC(=O)[C@H](CC(C)C)NC(=O)CN)C(N)=O` [GLLSLLSLLGKAL], the MIC in [1] was 3.1 µM (≈ 4.02 µg/mL); in [7], 3.1 µM (≈ 4.02 µg/mL); in assay [8], over 25 µM; in [9], 0.78 µM (≈ 1.01 µg/mL).

The record behind these values is DBAASP.
